Legend:
[1] = The drug is tested on Blautia hansenii strain: DSM20583 for biotransformation. The drug concentrations were measured before and after a 12-h incubation by liquid-chromatography-coupled mass spectrometry (LC–MS); conditions: 2 µM
[2] = The drug is tested on Ruminococcus torques strain: ATCC27756 for biotransformation. The drug concentrations were measured before and after a 12-h incubation by liquid-chromatography-coupled mass spectrometry (LC–MS); format: ADME; set-up: dose 2 uM, timepoint 0 vs 12 hours; conditions: 2 µM
[3] = The drug is tested on Parabacteroides merdae strain: ATCC43184 for biotransformation. The drug concentrations were measured before and after a 12-h incubation by liquid-chromatography-coupled mass spectrometry (LC–MS); conditions: 2 µM
[4] = The drug is tested on Blautia luti strain: DSM14534 for biotransformation. The drug concentrations were measured before and after a 12-h incubation by liquid-chromatography-coupled mass spectrometry (LC–MS); format: ADME; set-up: dose 2 uM, timepoint 0 vs 12 hours; conditions: 2 µM
[5] = limosilactobacillus reuteri cf48-3a, 12 h, 2 µM
Description: The drug is tested on Lactobacillus reuteri CF48-3A strain: BEI HM-102 for biotransformation. The drug concentrations were measured before and after a 12-h incubation by liquid-chromatography-coupled mass spectrometry (LC–MS)

[6] = The drug is tested on Bacteroides caccae strain: ATCC43185 for biotransformation. The drug concentrations were measured before and after a 12-h incubation by liquid-chromatography-coupled mass spectrometry (LC–MS); conditions: 2 µM
[7] = akkermansia muciniphila, 12 h, 2 µM
Description: The drug is tested on Akkermansia muciniphila strain: ATCC BAA-835 for biotransformation. The drug concentrations were measured before and after a 12-h incubation by liquid-chromatography-coupled mass spectrometry (LC–MS)

[8] = The drug is tested on Bacteroides fragilis strain: HMW615 for biotransformation. The drug concentrations were measured before and after a 12-h incubation by liquid-chromatography-coupled mass spectrometry (LC–MS); conditions: 2 µM
[9] = The drug is tested on Enterococcus faecalis strain: V583 for biotransformation. The drug concentrations were measured before and after a 12-h incubation by liquid-chromatography-coupled mass spectrometry (LC–MS); conditions: 2 µM
[10] = The drug is tested on Edwardsiella tarda strain: ATCC23685 for biotransformation. The drug concentrations were measured before and after a 12-h incubation by liquid-chromatography-coupled mass spectrometry (LC–MS); conditions: 2 µM
[11] = bacteroides thetaiotaomicron, 12 h, 2 µM
Description: The drug is tested on Bacteroides thetaiotaomicron strain: VPI-5482 for biotransformation. The drug concentrations were measured before and after a 12-h incubation by liquid-chromatography-coupled mass spectrometry (LC–MS)

[12] = The drug is tested on Bacteroides ovatus strain: ATCC8483 for biotransformation. The drug concentrations were measured before and after a 12-h incubation by liquid-chromatography-coupled mass spectrometry (LC–MS); conditions: 2 µM
[13] = bifidobacterium adolescentis, 12 h, 2 µM
Description: The drug is tested on Bifidobacterium adolescentis strain: ATCC 15703 for biotransformation. The drug concentrations were measured before and after a 12-h incubation by liquid-chromatography-coupled mass spectrometry (LC–MS)

[14] = The drug is tested on Dorea formicigenerans strain: ATCC27755 for biotransformation. The drug concentrations were measured before and after a 12-h incubation by liquid-chromatography-coupled mass spectrometry (LC–MS); conditions: 2 µM
[15] = The drug is tested on Bacteroides xylanisolvens strain: DSM18836 for biotransformation. The drug concentrations were measured before and after a 12-h incubation by liquid-chromatography-coupled mass spectrometry (LC–MS); conditions: 2 µM
[16] = The drug is tested on Bacteroides uniformis strain: ATCC8492 for biotransformation. The drug concentrations were measured before and after a 12-h incubation by liquid-chromatography-coupled mass spectrometry (LC–MS); conditions: 2 µM
[17] = The drug is tested on Odoribacter splanchnicus strain: fecal isolate for biotransformation. The drug concentrations were measured before and after a 12-h incubation by liquid-chromatography-coupled mass spectrometry (LC–MS); conditions: 2 µM
[18] = The drug is tested on Bacteroides fragilis strain: HMW610 for biotransformation. The drug concentrations were measured before and after a 12-h incubation by liquid-chromatography-coupled mass spectrometry (LC–MS); conditions: 2 µM
[19] = enterocloster bolteae, 12 h, 2 µM
Description: The drug is tested on Clostridium bolteae strain: ATCCBAA-613 for biotransformation. The drug concentrations were measured before and after a 12-h incubation by liquid-chromatography-coupled mass spectrometry (LC–MS)

| SMILES | Bacterial Biotransformation [1] | Bacterial Biotransformation [2] | Bacterial Biotransformation [3] | Bacterial Biotransformation [4] | Bacterial Biotransformation [5] | Bacterial Biotransformation [6] | Bacterial Biotransformation [7] | Bacterial Biotransformation [8] | Bacterial Biotransformation [9] | Bacterial Biotransformation [10] | Bacterial Biotransformation [11] | Bacterial Biotransformation [12] | Bacterial Biotransformation [13] | Bacterial Biotransformation [14] | Bacterial Biotransformation [15] | Bacterial Biotransformation [16] | Bacterial Biotransformation [17] | Bacterial Biotransformation [18] | Bacterial Biotransformation [19] |
| --- | --- | --- | --- | --- | --- | --- | --- | --- | --- | --- | --- | --- | --- | --- | --- | --- | --- | --- | --- |
| Cc1ccc(S(=O)(=O)NC(=O)NN2CC3CCCC3C2)cc1 (centres undefined) [GLICLAZIDE] | Compound NOT metabolized | Compound NOT metabolized | Compound NOT metabolized | Compound NOT metabolized | Compound NOT metabolized | Compound NOT metabolized | Compound NOT metabolized | Compound NOT metabolized | Compound NOT metabolized | Compound NOT metabolized | Compound NOT metabolized | Compound NOT metabolized | Compound NOT metabolized | Compound NOT metabolized | Compound NOT metabolized |  | Compound NOT metabolized | Compound metabolized | Compound NOT metabolized |
| CC(C)(C)NC(=O)[C@H]1CC[C@H]2[C@@H]3CC[C@H]4NC(=O)C=C[C@]4(C)[C@H]3CC[C@]12C [FINASTERIDE] | Compound NOT metabolized | Compound NOT metabolized | Compound NOT metabolized | Compound NOT metabolized | Compound NOT metabolized | Compound NOT metabolized | Compound metabolized | Compound metabolized | Compound NOT metabolized | Compound NOT metabolized | Compound NOT metabolized | Compound NOT metabolized | Compound NOT metabolized | Compound NOT metabolized | Compound metabolized | Compound metabolized | Compound metabolized | Compound metabolized | Compound NOT metabolized |
| CC(=O)O[C@]1(C(C)=O)CC[C@H]2[C@@H]3C=C(C)C4=CC(=O)CC[C@]4(C)[C@H]3CC[C@@]21C [MEGESTROL ACETATE] | Compound metabolized | Compound NOT metabolized | Compound metabolized |  | Compound NOT metabolized |  |  | Compound metabolized | Compound NOT metabolized | Compound NOT metabolized |  | Compound NOT metabolized | Compound metabolized | Compound NOT metabolized | Compound metabolized | Compound metabolized | Compound metabolized | Compound metabolized | Compound NOT metabolized |
| CCCN1C[C@H](CSC)C[C@@H]2c3cccc4[nH]cc(c34)C[C@H]21.CS(=O)(=O)O [PERGOLIDE MESYLATE] | Compound NOT metabolized | Compound NOT metabolized | Compound NOT metabolized | Compound NOT metabolized | Compound NOT metabolized | Compound NOT metabolized |  | Compound NOT metabolized | Compound NOT metabolized |  | Compound NOT metabolized | Compound NOT metabolized | Compound NOT metabolized | Compound NOT metabolized | Compound NOT metabolized | Compound NOT metabolized |  |  | Compound NOT metabolized |

Other lines, results leading:

| Bacterial Biotransformation [1] | Bacterial Biotransformation [2] | Bacterial Biotransformation [3] | Bacterial Biotransformation [4] | Bacterial Biotransformation [5] | Bacterial Biotransformation [6] | Bacterial Biotransformation [7] | Bacterial Biotransformation [8] | Bacterial Biotransformation [9] | Bacterial Biotransformation [10] | Bacterial Biotransformation [11] | Bacterial Biotransformation [12] | Bacterial Biotransformation [13] | Bacterial Biotransformation [14] | Bacterial Biotransformation [15] | Bacterial Biotransformation [16] | Bacterial Biotransformation [17] | Bacterial Biotransformation [18] | Bacterial Biotransformation [19] | SMILES |
| --- | --- | --- | --- | --- | --- | --- | --- | --- | --- | --- | --- | --- | --- | --- | --- | --- | --- | --- | --- |
| Compound NOT metabolized | Compound NOT metabolized | Compound NOT metabolized | Compound NOT metabolized | Compound NOT metabolized | Compound NOT metabolized | Compound NOT metabolized | Compound NOT metabolized | Compound NOT metabolized | Compound NOT metabolized | Compound NOT metabolized | Compound NOT metabolized | Compound NOT metabolized | Compound NOT metabolized | Compound NOT metabolized | Compound metabolized | Compound NOT metabolized |  |  | CO[C@]12C[C@@H](COC(=O)c3cncc(Br)c3)CN(C)[C@@H]1Cc1cn(C)c3cccc2c13 [NICERGOLINE] |
| Compound metabolized | Compound NOT metabolized |  | Compound NOT metabolized | Compound NOT metabolized | Compound NOT metabolized | Compound NOT metabolized | Compound NOT metabolized | Compound NOT metabolized | Compound NOT metabolized | Compound NOT metabolized | Compound NOT metabolized | Compound NOT metabolized | Compound NOT metabolized | Compound NOT metabolized | Compound metabolized | Compound metabolized |  | Compound NOT metabolized | CCN(CC)CCOC(=O)C(Cc1cccc2ccccc12)CC1CCCO1.O=C(O)C(=O)O (centres undefined) [NAFRONYL OXALATE] |
| Compound NOT metabolized | Compound NOT metabolized | Compound NOT metabolized | Compound NOT metabolized | Compound NOT metabolized | Compound NOT metabolized | Compound NOT metabolized | Compound NOT metabolized | Compound NOT metabolized | Compound NOT metabolized |  | Compound NOT metabolized | Compound NOT metabolized | Compound NOT metabolized |  | Compound NOT metabolized | Compound NOT metabolized | Compound NOT metabolized | Compound NOT metabolized | CN1CCN2c3ccccc3Cc3ccccc3C2C1 (centres undefined) [MIANSERIN] |
| Compound NOT metabolized | Compound NOT metabolized | Compound NOT metabolized | Compound NOT metabolized |  | Compound NOT metabolized |  | Compound NOT metabolized | Compound NOT metabolized | Compound NOT metabolized | Compound NOT metabolized | Compound NOT metabolized | Compound NOT metabolized | Compound NOT metabolized |  | Compound NOT metabolized | Compound NOT metabolized | Compound NOT metabolized | Compound NOT metabolized | CN(C)CCC=C1c2ccccc2COc2ccccc21 [DOXEPIN] |

Reference: ChEMBL document CHEMBL5303573, “Mapping human microbiome drug metabolism by gut bacteria and their genes” (Nature, 2019)
